Our source for the Ratio IC50 and IC50 values is ChEMBL document CHEMBL1773061, “Chiral sulfoxides as metabolites of 2-thioimidazole-based p38α mitogen-activated protein kinase inhibitors: enantioselective synthesis and biological evaluation” (J Med Chem, 2011).

Common to all, as to format: tissue-based
The target in experiment [1] is T1, Mitogen-activated protein kinase 14 (Homo sapiens, UniProt Q16539). As to the kind of experiment: Inhibition of p38 alpha MAPK in human whole blood assessed as phosphorylation of ATF-2 by immunosorbent non-radioactive enzyme assay relative to SB203580.
T1 sequence (Q16539 whole entry): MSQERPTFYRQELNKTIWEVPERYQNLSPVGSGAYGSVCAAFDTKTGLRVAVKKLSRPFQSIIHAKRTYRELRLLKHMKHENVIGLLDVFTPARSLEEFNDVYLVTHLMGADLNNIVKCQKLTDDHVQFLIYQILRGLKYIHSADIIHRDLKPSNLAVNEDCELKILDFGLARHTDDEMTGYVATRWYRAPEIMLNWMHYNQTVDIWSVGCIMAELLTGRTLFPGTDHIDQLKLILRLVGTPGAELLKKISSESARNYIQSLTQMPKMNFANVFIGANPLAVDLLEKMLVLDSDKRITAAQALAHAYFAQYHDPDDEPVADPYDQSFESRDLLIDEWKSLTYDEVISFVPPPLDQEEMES
For experiment [2], the target named is T1, Mitogen-activated protein kinase 14. The experiment in a line: Inhibition of p38 alpha MAPK in human whole blood assessed as phosphorylation of ATF-2 by immunosorbent non-radioactive enzyme assay.
For experiment [3] the target is unchanged. As to the kind of experiment: Inhibition of p38 alpha MAPK in human whole blood assessed as suppression of LPS-induced TNF-alpha release by immunosorbent non-radioactive enzyme assay.
For experiment [4] the target is unchanged. The experiment in a line: Inhibition of p38 alpha MAPK in human whole blood assessed as suppression of LPS-induced TNF-alpha release by immunosorbent non-radioactive enzyme assay relative to SB203580.

Turning to `CC(=O)Nc1cc(-c2[nH]c([S@@+](C)[O-])nc2-c2ccc(F)cc2)ccn1`, the Ratio IC50 in experiment [1] was found to be 0.55.

On to `CC(=O)Nc1cc(-c2c(-c3ccc(F)cc3)nc([S@@+](C)[O-])n2C)ccn1`, for which the Ratio IC50 in experiment [1] is 0.035. Further, the IC50 (usually the concentration that gives 50% inhibition) in experiment [2] was 1030 nM.

With `CC(=O)Nc1cc(-c2nc([S@@+](C)[O-])[nH]c2-c2ccc(F)cc2)ccn1`, the IC50 in experiment [2] amounted to 161 nM.

`C[S@@+]([O-])c1nc(-c2ccc(F)cc2)c(-c2ccnc(NC3CCCCC3)c2)[nH]1`: the IC50 came to 550 nM in experiment [3] and 29 nM in experiment [2]. Further, the values for the Ratio IC50 in experiment [4] and in experiment [1] were 3.09 and 2.55, respectively.

For `CC(C)[C@@H](C)Nc1cc(-c2nc([S@+](C)[O-])[nH]c2-c2ccc(F)cc2)ccn1`, the IC50 in experiment [3] turned out to be 750 nM; in experiment [2], 36 nM.

`CC(C)Nc1cc(-c2nc([S@@+]([O-])C(C)C)[nH]c2-c2ccc(F)cc2)ccn1`: the IC50 in experiment [3] was 610 nM; in experiment [2] it was 6 nM.

Consider `CSc1nc(-c2ccc(F)cc2)c(-c2ccnc(NC3CCOCC3)c2)[nH]1`, for which the Ratio IC50 amounted to 10.7 in experiment [4] and 9.8 in experiment [1].

With `CSc1nc(-c2ccc(F)cc2)c(-c2ccnc(N[C@@H](C)C(C)C)c2)[nH]1`, the IC50 in experiment [3] worked out at 50 nM; in experiment [2] it was 26 nM. For the same compound, the Ratio IC50 came out at 31.2 in experiment [4] and 1.81 in experiment [1].

For `CC(C)Nc1cc(-c2[nH]c(SC(C)C)nc2-c2ccc(F)cc2)ccn1`, the IC50 in experiment [3] is 120 nM; in experiment [2], 4 nM. The figures for the Ratio IC50 in experiment [4] and in experiment [1] were 19.4 and 3.75, respectively.

Consider `C[C@@H](Nc1cc(-c2[nH]c([S@+](C)[O-])nc2-c2ccc(F)cc2)ccn1)c1ccccc1`, for which, in experiment [1], the Ratio IC50 was found to be 0.42. Also, the IC50 in experiment [2] stood at 200 nM.

On to `CC(C)[S@+]([O-])c1nc(-c2ccnc(NC3CCCCC3)c2)c(-c2ccc(F)cc2)[nH]1`, for which the IC50 in experiment [3] turned out to be 340 nM; in experiment [2], 21 nM.

Turning to `CC(C)[C@H](C)Nc1cc(-c2[nH]c([S@@+](C)[O-])nc2-c2ccc(F)cc2)ccn1`, the Ratio IC50 in experiment [4] came out at 8.5; in experiment [1], 3.05.

For `CC(C)[S@+]([O-])c1nc(-c2ccc(F)cc2)c(-c2ccnc(NC3CCCCC3)c2)[nH]1`, the Ratio IC50 in experiment [4] was determined as 5.62; in experiment [1] it was 1.62.

As for `C[S@@+]([O-])c1nc(-c2ccc(F)cc2)c(-c2ccnc(NC3CCOCC3)c2)[nH]1`, the Ratio IC50 in experiment [4] amounted to 2.15; in experiment [1], 4.45.

With `CC(=O)Nc1cc(-c2c(-c3ccc(F)cc3)nc([S+](C)[O-])n2C)ccn1` (racemic), the Ratio IC50 in experiment [1] is 0.042. The IC50 in experiment [2] was found to be 1070 nM.

As for `CC(C)[S@@+]([O-])c1nc(-c2ccc(F)cc2)c(-c2ccnc(NC3CCCCC3)c2)[nH]1`, the concentration for half-maximal inhibition (IC50) in experiment [3] amounted to 250 nM; in experiment [2], 11 nM. Moreover, the results for the Ratio IC50 in experiment [4] and in experiment [1] were 7.64 and 3.09, respectively.

On to `CSc1nc(-c2ccc(F)cc2)c(-c2ccnc(NC3CCCCC3)c2)[nH]1`, for which the Ratio IC50 in experiment [4] was 7.24; in experiment [1], 2.89.

With `CSc1nc(-c2ccnc(NC(=O)Cc3ccc(F)cc3)c2)c(-c2ccc(F)cc2)[nH]1`, in experiment [3], the IC50 was determined as 2980 nM.

As for `CC(C)[C@H](C)Nc1cc(-c2[nH]c([S+](C)[O-])nc2-c2ccc(F)cc2)ccn1` (mixture of isomers), the IC50 stood at 150 nM in experiment [3] and 17 nM in experiment [2]. The Ratio IC50 in experiment [4] was 10.4; in experiment [1], 3.41.

On to `C[S@+]([O-])c1nc(-c2ccc(F)cc2)c(-c2ccnc(NC3CCOCC3)c2)[nH]1`, for which the Ratio IC50 in experiment [4] amounted to 2.05; in experiment [1], 1.38.

In the case of `CC(=O)Nc1cc(-c2c(-c3ccc(F)cc3)nc([S@+](C)[O-])n2C)ccn1`, the Ratio IC50 in experiment [1] worked out at 0.028. For the same compound, the concentration for half-maximal inhibition (IC50) in experiment [2] stood at 1260 nM.

`C[C@H](Nc1cc(-c2nc([S@+](C)[O-])[nH]c2-c2ccc(F)cc2)ccn1)c1ccccc1`: the IC50 in experiment [3] is 5520 nM; in experiment [2], 45 nM.

Consider `C[S@+]([O-])c1nc(-c2ccc(F)cc2)c(-c2ccnc(NC3CCCCC3)c2)[nH]1`, for which the Ratio IC50 in experiment [4] amounted to 2.08; in experiment [1] it was 1.48.

On to `C[S@@+]([O-])c1nc(-c2ccc(F)cc2)c(-c2ccnc(NC(=O)Cc3ccc(F)cc3)c2)[nH]1`, for which the IC50 in experiment [3] was 6410 nM; in experiment [2], 77 nM. Besides, the results for the Ratio IC50 in experiment [4] and in experiment [1] were 0.27 and 1, respectively.

Regarding `CSc1nc(-c2ccc(F)cc2)c(-c2ccnc(NC(C)=O)c2)[nH]1`, the Ratio IC50 in experiment [1] amounted to 2.11. In experiment [2], the IC50 was 37 nM.

As to `CC(C)[C@H](C)Nc1cc(-c2[nH]c([S@+](C)[O-])nc2-c2ccc(F)cc2)ccn1`, the IC50 was found to be 250 nM in experiment [3] and 27 nM in experiment [2]. In addition, the Ratio IC50 in experiment [4] amounted to 6.8; in experiment [1], 2.15.

On to `CC(C)[C@@H](C)Nc1cc(-c2[nH]c([S+](C)[O-])nc2-c2ccc(F)cc2)ccn1` (mixture of isomers), for which the values for the IC50 in experiment [3] and in experiment [2] were 1340 nM and 61 nM, respectively. Further, the Ratio IC50 is 0.92 in experiment [4] and 1.18 in experiment [1].

Turning to `C[C@H](Nc1cc(-c2[nH]c([S+](C)[O-])nc2-c2ccc(F)cc2)ccn1)c1ccccc1` (mixture of isomers), the values for the IC50 in experiment [3] and in experiment [2] were 6280 nM and 95 nM, respectively. The Ratio IC50 in experiment [4] is 0.25; in experiment [1], 0.53.

`CC(C)Nc1cc(-c2nc([S@+]([O-])C(C)C)[nH]c2-c2ccc(F)cc2)ccn1`: the IC50 turned out to be 450 nM in experiment [3] and 4 nM in experiment [2].

With `CSc1nc(-c2ccc(F)cc2)c(-c2ccnc(N[C@H](C)C(C)C)c2)[nH]1`, the half-inhibitory concentration (IC50) was found to be 180 nM in experiment [3] and 40 nM in experiment [2]. In addition, the Ratio IC50 in experiment [4] worked out at 8.67; in experiment [1] it was 1.8.

With `CC(C)[C@H](C)Nc1cc(-c2nc([S@@+](C)[O-])[nH]c2-c2ccc(F)cc2)ccn1`, the IC50 in experiment [3] amounted to 200 nM; in experiment [2], 19 nM.

On to `CC(C)Sc1nc(-c2ccc(F)cc2)c(-c2ccnc(NC3CCCCC3)c2)[nH]1`, for which the Ratio IC50 in experiment [4] was 2.86; in experiment [1] it was 4.17.

As to `C[C@@H](Nc1cc(-c2[nH]c([S+](C)[O-])nc2-c2ccc(F)cc2)ccn1)c1ccccc1` (mixture of isomers), in experiment [1], the Ratio IC50 is 0.28. Besides, the concentration for half-maximal inhibition (IC50) in experiment [2] came to 207 nM.

With `CC(=O)Nc1cc(-c2[nH]c([S@+](C)[O-])nc2-c2ccc(F)cc2)ccn1`, the Ratio IC50 in experiment [1] came to 0.45. The IC50 in experiment [2] was 197 nM.

On to `C[C@H](Nc1cc(-c2[nH]c([S@@+](C)[O-])nc2-c2ccc(F)cc2)ccn1)c1ccccc1`, for which the figures for the half-inhibitory concentration (IC50) in experiment [3] and in experiment [2] were 10000 nM and 25 nM, respectively. Besides, the results for the Ratio IC50 in experiment [4] and in experiment [1] were 0.16 and 1.12, respectively.

Take `CSc1nc(-c2ccc(F)cc2)c(-c2ccnc(NC(C)C)c2)[nH]1`: the figures for the IC50 in experiment [3] and in experiment [2] were 130 nM and 2 nM, respectively. In addition, the Ratio IC50 in experiment [4] turned out to be 12; in experiment [1], 18.

On to `CC(C)Nc1cc(-c2[nH]c([S@+]([O-])C(C)C)nc2-c2ccc(F)cc2)ccn1`, for which the Ratio IC50 in experiment [4] was found to be 4.24; in experiment [1], 9.25.

For the compound `C[S@@+]([O-])c1nc(-c2ccnc(NC3CCOCC3)c2)c(-c2ccc(F)cc2)[nH]1`, the results for the concentration for half-maximal inhibition (IC50) in experiment [3] and in experiment [2] were 790 nM and 11 nM, respectively.

As for `CSc1nc(-c2ccnc(NC3CCCCC3)c2)c(-c2ccc(F)cc2)[nH]1`, the IC50 was found to be 170 nM in experiment [3] and 27 nM in experiment [2].

As for `CC(C)Nc1cc(-c2nc([S@@+](C)[O-])[nH]c2-c2ccc(F)cc2)ccn1`, the half-maximal inhibitory concentration (IC50) in experiment [3] was found to be 530 nM; in experiment [2], 12 nM.

For the compound `CSc1nc(-c2ccnc(NC3CCOCC3)c2)c(-c2ccc(F)cc2)[nH]1`, in experiment [3], the IC50 was found to be 180 nM.

Take `CC(C)[C@@H](C)Nc1cc(-c2[nH]c([S@+](C)[O-])nc2-c2ccc(F)cc2)ccn1`: the results for the Ratio IC50 in experiment [4] and in experiment [1] were 2.07 and 1.44, respectively.

In the case of `CC(C)Nc1cc(-c2[nH]c([S@@+]([O-])C(C)C)nc2-c2ccc(F)cc2)ccn1`, the Ratio IC50 in experiment [4] turned out to be 3.13; in experiment [1] it was 6.17.

Regarding `CC(C)Sc1nc(-c2ccnc(NC3CCCCC3)c2)c(-c2ccc(F)cc2)[nH]1`, the IC50 in experiment [3] worked out at 650 nM; in experiment [2], 12 nM.

Consider `C[C@H](Nc1cc(-c2[nH]c([S@+](C)[O-])nc2-c2ccc(F)cc2)ccn1)c1ccccc1`, for which the Ratio IC50 was 0.28 in experiment [4] and 0.62 in experiment [1].

On to `C[S@+]([O-])c1nc(-c2ccc(F)cc2)c(-c2ccnc(NC(=O)Cc3ccc(F)cc3)c2)[nH]1`, for which the figures for the Ratio IC50 in experiment [4] and in experiment [1] were 0.23 and 0.55, respectively.

Regarding `CC(C)Nc1cc(-c2[nH]c([S@@+](C)[O-])nc2-c2ccc(F)cc2)ccn1`, the values for the Ratio IC50 in experiment [4] and in experiment [1] were 3.62 and 5.08, respectively.

As for `C[C@@H](Nc1cc(-c2[nH]c([S@@+](C)[O-])nc2-c2ccc(F)cc2)ccn1)c1ccccc1`, the Ratio IC50 in experiment [1] was 0.49.

Turning to `C[S@+]([O-])c1nc(-c2ccnc(NC3CCOCC3)c2)c(-c2ccc(F)cc2)[nH]1`, the concentration for half-maximal inhibition (IC50) in experiment [3] came out at 830 nM; in experiment [2], 34 nM.

`C[C@@H](Nc1cc(-c2nc([S@@+](C)[O-])[nH]c2-c2ccc(F)cc2)ccn1)c1ccccc1`: in experiment [2], the IC50 was found to be 168 nM.

With `C[S@+]([O-])c1nc(-c2ccnc(NC(=O)Cc3ccc(F)cc3)c2)c(-c2ccc(F)cc2)[nH]1`, the IC50 turned out to be 7530 nM in experiment [3] and 141 nM in experiment [2].

In the case of `CSc1nc(-c2ccc(F)cc2)c(-c2ccnc(NC(C)=O)c2)n1C`, the Ratio IC50 in experiment [1] was found to be 0.28. In experiment [2], the IC50 came out at 188 nM.

With `C[S@+]([O-])c1nc(-c2ccnc(NC3CCCCC3)c2)c(-c2ccc(F)cc2)[nH]1`, the figures for the IC50 in experiment [3] and in experiment [2] were 590 nM and 50 nM, respectively.

Turning to `CC(=O)Nc1cc(-c2[nH]c([S+](C)[O-])nc2-c2ccc(F)cc2)ccn1` (racemic), in experiment [1], the Ratio IC50 came to 0.1. The IC50 in experiment [2] was 403 nM.

As to `CSc1nc(-c2ccc(F)cc2)c(-c2ccnc(NC(=O)Cc3ccc(F)cc3)c2)[nH]1`, the Ratio IC50 in experiment [4] is 0.66; in experiment [1] it was 3.44.
